Data from paper PMC6052462, “Oxidation resistance 1 is a novel senolytic target” (Aging Cell, 2018).

Target: T1, OXR1 (endogenous, senescent WI38 cells) (Homo sapiens, UniProt Q8N573)
T1 construct: native protein of human WI38 fibroblasts (senescent)
T1 sequence (Q8N573 1-874): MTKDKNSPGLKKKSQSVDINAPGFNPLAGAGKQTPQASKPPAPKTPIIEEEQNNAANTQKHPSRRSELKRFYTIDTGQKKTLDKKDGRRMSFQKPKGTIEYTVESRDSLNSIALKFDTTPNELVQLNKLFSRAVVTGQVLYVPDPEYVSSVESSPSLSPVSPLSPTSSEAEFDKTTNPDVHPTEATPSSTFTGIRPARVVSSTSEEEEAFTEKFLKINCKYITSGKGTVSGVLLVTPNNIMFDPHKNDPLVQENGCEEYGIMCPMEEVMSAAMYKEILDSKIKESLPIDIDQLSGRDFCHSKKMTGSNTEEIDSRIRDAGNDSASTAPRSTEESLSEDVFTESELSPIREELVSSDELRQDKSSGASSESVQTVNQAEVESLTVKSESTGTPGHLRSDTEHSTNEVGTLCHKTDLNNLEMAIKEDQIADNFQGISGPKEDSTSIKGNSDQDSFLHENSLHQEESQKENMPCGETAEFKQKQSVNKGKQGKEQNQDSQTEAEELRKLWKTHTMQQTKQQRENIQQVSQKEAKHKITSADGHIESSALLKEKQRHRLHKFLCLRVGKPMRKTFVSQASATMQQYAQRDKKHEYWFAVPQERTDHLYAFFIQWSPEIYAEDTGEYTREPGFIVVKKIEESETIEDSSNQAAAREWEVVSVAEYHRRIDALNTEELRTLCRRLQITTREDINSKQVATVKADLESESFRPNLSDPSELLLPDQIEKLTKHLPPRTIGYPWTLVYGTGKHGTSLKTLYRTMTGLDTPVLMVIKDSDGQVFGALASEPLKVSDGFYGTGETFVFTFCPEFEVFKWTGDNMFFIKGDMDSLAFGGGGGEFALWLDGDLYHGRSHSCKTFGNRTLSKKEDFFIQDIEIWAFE
Assay: click-chemistry pull-down from live cells, LC-MS/MS
Format: cell-based
Conditions: labelled compound; 5 µM, 5 h; covalent

In the case of `C#CCCOc1c(OC)cc(/C=C/C(=O)N2CCC=CC2=O)cc1OC` [PL probe, alkyne-labeled piperlongumine], the “click-chemistry pull-down from live cells, LC-MS/MS” value is reported as “OXR1 was on the top of the list of the PL‐binding proteins in SCs”.
